# Source: patent publication US12497431B2, “Modified peptide fragments of Cav-1 protein and the use thereof in the treatment of fibrosis” (Rein Therapeutics, Inc., priority 2018, dated 2025)
# Non-standard residues stand in square brackets, D forms with d. Residues, ends and D or L forms follow the SMILES beside them. No end group written: not given here. Orn = NCCC[C@H](N)C(=O)O
# Key:
# [1] = Cav-1 peptide solubility in Tris Buffered Saline, pH 7.51 (absorbance at 600 nm); format: physicochemical; details: for UV (Abs) at dissolution / UV (Abs) after rest: absorbance at 600 nm, 50 mg in 5 mL TBS pH 7.51; for UV (Abs) at dissolution: immediately after dissolution for insoluble peptides, after 10 minutes for soluble peptides; for UV (Abs) after rest: again after 10 minutes (APi2348 15 min, APi2352 5 min, APi2353 15 min, APi2345 only after 20 min)
# Method: In order to determine which peptides may be most soluble in a liquid formulation, 50 mg of each Cav-1 peptide was dissolved in 5 mL of Tris Buffered Saline, pH 7.51. Each sample was vortexed to help the sample dissolve completely. The absorbance at 600 nm was measured immediately after dissolution of the peptides for insoluble peptides, or after 10 minutes for soluble peptides. Absorbance was measured again after 10 minutes for insoluble peptides except for samples APi2348, APi2352, APi2353 which were measured a second time at 15 minutes, 5 minutes, or 15 minutes after dissolution, respectively.
# [2] = system: Idiopathic Pulmonary Fibrosis (IPF) cell line 2051; assay: Western blot of SMA and tubulin in IPF cells treated with Cav-1 peptides; format: cell-based; details: 2 days treatment, 10 uM peptide (LTI-03 10 and 90 uM), ImageJ ratio (FIG. 2)
# Method: Cav-1 peptides were dissolved in DMSO to make 10 mM stock solutions. 10 mM stock solutions of each peptide were then diluted in HBSS to make 900 μM working stock solutions. The DMSO resuspended polypeptides as well as the working stocks were stored at −20 deg C. For culture media, working stocks were added to DMEM culture media to a final concentration of 10 μM of the Cav-1 peptide.
# Idiopathic Pulmonary Fibrosis (IPF) cell line 2051 was purchased and IPF cells from the fourth passage were seeded in 100 mm plates containing DMEM, 10% FBS, and 1% P/S. IPF cells were washed with 4 mL DMEM+1% P/S and serum starved overnight. Cells were then treated for 2 days with either 44 uL HBSS (negative control), 10 uM LTI-03 (SEQ ID NO: 2), 90 uM LTI-03 (positive control), 10 uM APi2350, 10 uM APi2354, 10 uM APi2355, 10 uM APi2356 or with 20 uL of DMSO (negative control).
# After 2 days of treatment, cells were washed once in cold, sterile HBSS. HBSS was removed, and 150 uL of lysis buffer with protease inhibitor cocktail was added to the cells. Cells were incubated with lysis buffer for 10 minutes. Cell lysates were scraped from the plates and collected. Cell lysates were then sonicated twice. Following sonication, the lysates were centrifuged at 13,000 RPM for 20 minutes. Lysates were then flash frozen in liquid nitrogen, thawed, vortexed, and centrifuged again at 13,000 RPM for 30 minutes. The supernatant was then collected and the pellet was discarded. The concentration of cell lysates was then determined by BCA assay.
# Western blots were performed to evaluate the presence the effects of treatments. Briefly, 12 ug of each lysate was run on a 10% polyacrylamide gel. The gel was then transferred to a membrane and washed. Primary antibodies against smooth muscle actin (SMA) and Tubulin Results of the western blot can be seen in FIG. 1. The treatment for each of the lysates in the pictured lanes are: 1: Untreated, 2: 10 μM LTI-03, 3: 90 μM LTI-03, 4: 10 μM APi2350, 5: 10 μM APi2354, 6: 10 μM APi 2355, 7: 10 μM APi2356, and 8: DMSO.
# Western blots were photographed and analyzed with ImageJ to determine a ratio of smooth muscle actin to tubulin (FIG. 2).
# [3] = system: AEC2 cells of non-specific interstitial pneumonia (NSIP) precision cut lung slices; assay: Lysotracker staining of AEC2 cells in NSIP precision cut lung slices; format: cell-based; details: NSIP PCLS, 48 h after a single treatment with 10, 100, or 500 μM
# Excerpt: (§1) To assess the effect of Cav-1 peptide APi2355 (SEQ ID NO: 8) on AEC2 cell viability, surgical biopsies were obtained for the preparation of non-specific interstitial pneumonia precision cut lung slices (PCLS). One individual with non-specific interstitial pneumonia (NSIP) and another with end-stage IPF were processed. Lysotracker staining, which stains acidic compartments in live cells and selectively accumulates in the lamellar bodies of lung AEC2 cells (Van der Velden et al., 2013), was performed. Cav-1 peptide was suspended in DMEM/5% FBS, and PCLS slices (n=5 replicates/treatment group) were treated with 10, 100, or 500 μM LTI-03 or APi2355 (Var 55). Lysotracker staining (Green DND-26, Promega) was performed on NSIP PCLS 48 h after a single treatment. […] In addition, lysotracker staining (Red DND-99, Promega) was performed on end-stage IPF on days 1, 2, 3, 5, and 7 following daily treatment with LTI-03 or APi2355.
# [4] = system: AEC2 cells of end-stage IPF precision cut lung slices; assay: Lysotracker staining of AEC2 cells in end-stage IPF precision cut lung slices; format: cell-based; details: end-stage IPF PCLS, daily treatment, staining on days 1, 2, 3, 5, and 7; 10, 100, or 500 μM
# Excerpt: as §1
# [5] = TBS pH 7.51, compared to other tested peptides
UV (Abs) at dissolution [1],UV (Abs) after rest [1],Molecule,further results
0.846,–,"CC(C)[C@H](NC(=O)[C@@H](NC(=O)[C@H](Cc1ccccc1)NC(=O)[C@@H](NC(=O)[C@@H](NC(=O)[C@H](Cc1ccccc1)NC(=O)[C@H](CO)NC(=O)[C@H](C)NC(=O)[C@@H](N)CCCN)[C@@H](C)O)[C@@H](C)O)[C@@H](C)O)C(=O)N[C@H](C(=O)N[C@@H](CCCCN)C(N)=O)[C@@H](C)O [APi2348, OASFTTFTVTK-NH2] (H-[Orn]ASFTTFTVTK-NH2)",–
0.008,0.007,"CC(C)[C@H](NC(=O)[C@@H](NC(=O)[C@H](Cc1ccccc1)NC(=O)[C@@H](NC(=O)[C@@H](NC(=O)[C@H](Cc1ccccc1)NC(=O)[C@H](CO)NC(=O)[C@H](C)NC(=O)[C@H](CCCCN)NC(=O)CNC(=O)[C@H](CCC(=O)O)NC(=O)[C@@H](C)NC(=O)[C@@H](C)N)[C@@H](C)O)[C@@H](C)O)[C@@H](C)O)C(=O)N[C@H](C(=O)N[C@@H](CCCCN)C(=O)NCC(=O)N[C@@H](CO)C(=O)N[C@H](C)C(=O)N[C@H](C)C(N)=O)[C@@H](C)O [APi2354, aaEGKASFTTFTVTKGSaa-NH2] (H-[dA][dA]EGKASFTTFTVTKGS[dA][dA]-NH2)","solubility at pH 7.51 (in words) [1, 5]: increased solubility; expression of SMA relative to tubulin [2]: increased the expression of SMA relative to tubulin"
0.000,0.000,"CC(=O)N[C@H](C)C(=O)N[C@H](C)C(=O)N[C@@H](CCC(=O)O)C(=O)NCC(=O)N[C@@H](CCCCN)C(=O)N[C@@H](C)C(=O)N[C@@H](CO)C(=O)N[C@@H](Cc1ccccc1)C(=O)N[C@H](C(=O)N[C@H](C(=O)N[C@@H](Cc1ccccc1)C(=O)N[C@H](C(=O)N[C@H](C(=O)N[C@H](C(=O)N[C@@H](CCCCN)C(=O)NCC(=O)N[C@@H](CO)C(=O)N[C@H](C)C(=O)N[C@H](C)C(N)=O)[C@@H](C)O)C(C)C)[C@@H](C)O)[C@@H](C)O)[C@@H](C)O [APi2355, Ac-aaEGKASFTTFTVTKGSaa-NH2] (Ac-[dA][dA]EGKASFTTFTVTKGS[dA][dA]-NH2)","solubility at pH 7.51 (in words) [1, 5]: increased solubility; expression of SMA relative to tubulin [2]: increased the expression of SMA relative to tubulin; AEC2 cell viability (lysotracker staining) [3]: strong dose-dependent increase; AEC2 cell viability (lysotracker staining) [4]: observed out to day 3"
3.000,3.000,"Ac-DSGKASFTTFTVTK-NH2 [APi2353, Ac-DSGKASFTTFTVTK-NH2]",–
2.347,2.284,"Ac-KASFTTFTVTK-NH2 [APi2347, Ac-KASFTTFTVTK-NH2]",–
2.523,2.377,"Ac-KASFTTFTVTKGS-NH2 [APi2351, Ac-KASFTTFTVTKGS-NH2]",–
1.870,1.827,Ac-OASFTTFTVTK-NH2 [APi2349],–
2.293,–,Ac-OASFTTFTVTOS-NH2 [APi2357],–
2.468,2.398,"H-DSGKASFTTFTVTK-NH2 [APi2352, DSGKASFTTFTVTK-NH2]",–
2.409,1.437,"H-FTTFTVT-NH2 [APi2344, FTTFTVT-NH2]",–
–,1.058,"H-FTTFTVTK-NH2 [APi2345, FTTFTVTK-NH2]","solubility at pH 7.51 (in words) [1, 5]: dissolution was incomplete"
1.648,1.622,"H-KASFTTFTVTK-NH2 [APi2346, KASFTTFTVTK-NH2]",–
–,–,KASFTTFTVTKGS-NH2 [APi2350],solubility at pH 7.51 (in words) ([1]; pH 7.51): increased solubility; expression of SMA relative to tubulin [2]: increased the expression of SMA relative to tubulin

Molecule,UV (Abs) at dissolution [1],UV (Abs) after rest [1],further results
"OASFTTFTVTOS-NH2 ([Orn]ASFTTFTVT[Orn]S-NH2; N-terminus assumed; SMILES CC(C)[C@H](NC(=O)[C@@H](NC(=O)[C@H](Cc1ccccc1)NC(=O)[C@@H](NC(=O)[C@@H](NC(=O)[C@H](Cc1ccccc1)NC(=O)[C@H](CO)NC(=O)[C@H](C)NC(=O)[C@@H](N)CCCN)[C@@H](C)O)[C@@H](C)O)[C@@H](C)O)C(=O)N[C@H](C(=O)N[C@@H](CCCN)C(=O)N[C@@H](CO)C(N)=O)[C@@H](C)O) [APi2356, O = Ornithine]",0.001,–,solubility at pH 7.51 (in words) ([1]; pH 7.51): increased solubility; expression of SMA relative to tubulin [2]: increased the expression of SMA relative to tubulin
